ChEMBL document CHEMBL3627659, “Development of novel dipeptide-like rhodesain inhibitors containing the 3-bromoisoxazoline warhead in a constrained conformation” (Bioorg Med Chem, 2015)
Activity calls are given as the source filed them. The rule behind the calls is not given here.

What was measured:
Rhodesain = Rhodesain (Trypanosoma brucei rhodesiense, UniProt Q95PM0); test: Inhibition of Trypanosoma brucei rhodesiense rhodesain using Cbz-Phe-Arg-7-amino-4-methylcoumarin assessed as substrate hydrolysis measured by fluorescence analysis for 10 mins
[1] = target: Cathepsin B (Homo sapiens) (UniProt P07858); test: Inhibition of human cathepsin B using Cbz-Phe-Arg-AMC at 100 uM measured by fluorescence spectrophotometry
[2] = target: Procathepsin L (Homo sapiens) (UniProt P07711); test: Inhibition of human cathepsin L using Cbz-Phe-Arg-AMC at 100 uM measured by fluorescence spectrophotometry
[3] = target: Rhodesain (Trypanosoma brucei rhodesiense) (UniProt Q95PM0); test: Inhibition of Trypanosoma brucei rhodesiense rhodesain using Cbz-Phe-Arg-7-amino-4-methylcoumarin assessed as substrate hydrolysis at 100 uM measured by fluorescence analysis for 10 mins
[4] = Cytotoxicity against mouse J774.1 cells incubated for 24 to 48 hrs by Alamar Blue assay; type: cell-based
[5] = tested on: Trypanosoma brucei brucei; test: Antitrypanosomal activity against Trypanosoma brucei brucei TC 221 after 48 hrs by Alamar Blue assay; type: functional, organism-based; details: TC 221, 48 h
[6] = tested on: Trypanosoma brucei brucei; test: Antitrypanosomal activity against Trypanosoma brucei brucei TC 221 after 72 hrs by Alamar Blue assay; type: functional, organism-based; details: TC 221, 72 h

Chain of Procathepsin L (Homo sapiens) (P07711 114-333 limits assumed): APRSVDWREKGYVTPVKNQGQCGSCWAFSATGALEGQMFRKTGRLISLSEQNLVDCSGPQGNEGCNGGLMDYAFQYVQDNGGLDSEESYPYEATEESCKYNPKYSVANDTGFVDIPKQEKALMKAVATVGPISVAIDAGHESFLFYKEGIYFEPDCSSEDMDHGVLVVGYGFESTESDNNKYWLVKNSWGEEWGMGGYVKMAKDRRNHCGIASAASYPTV
Chain of Rhodesain (Q95PM0 whole entry): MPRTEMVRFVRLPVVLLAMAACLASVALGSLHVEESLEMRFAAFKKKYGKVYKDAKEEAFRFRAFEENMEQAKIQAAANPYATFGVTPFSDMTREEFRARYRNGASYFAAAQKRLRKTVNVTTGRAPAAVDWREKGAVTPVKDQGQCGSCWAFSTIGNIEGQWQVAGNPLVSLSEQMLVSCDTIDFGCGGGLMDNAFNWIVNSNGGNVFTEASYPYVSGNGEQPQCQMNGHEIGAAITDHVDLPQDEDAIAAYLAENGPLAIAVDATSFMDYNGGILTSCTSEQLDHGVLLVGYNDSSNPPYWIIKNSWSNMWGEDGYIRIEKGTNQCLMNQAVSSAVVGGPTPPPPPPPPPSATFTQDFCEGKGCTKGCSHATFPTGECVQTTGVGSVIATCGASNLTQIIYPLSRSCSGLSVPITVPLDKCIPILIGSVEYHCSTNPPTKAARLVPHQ
Chain of Rhodesain (Trypanosoma brucei rhodesiense) (Q95PM0 1-450): as the sequence (Q95PM0 whole entry) above

SMILES	Ki (Rhodesain)	inhibition [1]	inhibition [2]	inhibition [3]	IC50 [4]	IC50 [5]	IC50 [6]
C=CCOC(=O)N[C@@H](Cc1ccccc1)C(=O)N1C[C@@H]2ON=C(Br)[C@@H]2C1	16.6 µM	inactive	inactive	> 40%			
C=CCOC(=O)N[C@@H](Cc1ccccc1)C(=O)N1C[C@@H]2C(Br)=NO[C@@H]2C1	15.1 µM	inactive	inactive	> 40%			
C=CCOC(=O)N[C@@H](CCc1ccccc1)C(=O)N1C[C@@H]2ON=C(Br)[C@@H]2C1	3.35 µM	inactive		> 40%			
C=CCOC(=O)N[C@@H](CCc1ccccc1)C(=O)N1C[C@@H]2C(Br)=NO[C@@H]2C1	2.73 µM	inactive		> 40%			
C=CCOC(=O)N[C@@H](CC(C)C)C(=O)N1C[C@@H]2ON=C(Br)[C@@H]2C1	9.05 µM	inactive	inactive	> 40%			
C=CCOC(=O)N[C@@H](CC(C)C)C(=O)N1C[C@@H]2C(Br)=NO[C@@H]2C1	8.52 µM	inactive	inactive	> 40%			
O=C(N[C@@H](CCc1ccccc1)C(=O)N1C[C@@H]2C(Br)=NO[C@@H]2C1)OCc1ccc([N+](=O)[O-])cc1	6.81 µM	inactive		> 40%			
O=C(N[C@@H](CCc1ccccc1)C(=O)N1C[C@@H]2C(Br)=NO[C@@H]2C1)OCC1CC1		inactive		15.7%			
C=CCOC(=O)N[C@@H](Cc1ccccc1)C(=O)N1CC2ON=C(Br)C2C1 (mixture of isomers)	16.8 µM	inactive	inactive	> 40%			
O=C(N[C@@H](Cc1ccccc1)C(=O)N1CC2ON=C(Br)C2C1)OCc1ccccc1 (mixture of isomers)	8.41 µM	inactive	inactive	> 40%	> 100 µM	16.4 µM	18.2 µM
CC(C)(C)OC(=O)N[C@@H](Cc1ccccc1)C(=O)N1CC2ON=C(Br)C2C1 (mixture of isomers)	17.7 µM	inactive	inactive	> 40%			
C=CCOC(=O)N[C@@H](CCc1ccccc1)C(=O)N1CC2ON=C(Br)C2C1 (mixture of isomers)	2.62 µM	inactive		> 40%			
C=CCOC(=O)N[C@@H](CC(C)C)C(=O)N1CC2ON=C(Br)C2C1 (mixture of isomers)	8.36 µM	inactive	inactive	> 40%			
CC(C)C[C@H](NC(=O)OC(C)(C)C)C(=O)N1CC2ON=C(Br)C2C1 (mixture of isomers)	13.6 µM	inactive	inactive	> 40%			
CC(C)(C)OC(=O)N[C@@H](CCc1ccccc1)C(=O)N1CC2ON=C(Br)C2C1 (mixture of isomers)		inactive		5.8%			
CC(C)C[C@H](NC(=O)OCc1ccccc1)C(=O)N1CC2ON=C(Br)C2C1 (mixture of isomers)		inactive		8.3%			
CCCOC(=O)N[C@@H](CC(C)C)C(=O)N1CC2ON=C(Br)C2C1 (mixture of isomers)		inactive	inactive	11.3%			
CCCOC(=O)N[C@@H](CCc1ccccc1)C(=O)N1CC2ON=C(Br)C2C1 (mixture of isomers)		inactive		15.3%			
CCCOC(=O)N[C@@H](Cc1ccccc1)C(=O)N1CC2ON=C(Br)C2C1 (mixture of isomers)		inactive	inactive	13.1%			
O=C(N[C@@H](CCc1ccccc1)C(=O)N1CC2ON=C(Br)C2C1)OCc1ccccc1 (mixture of isomers)		inactive		inactive			
